ChEMBL document CHEMBL4406797, “Histone acetyltransferase inhibitors: An overview in synthesis, structure-activity relationship and molecular mechanism” (Eur J Med Chem, 2019)
Converted amounts (≈) assume the structure as drawn.

What was measured:
[1] = target: T1, Histone acetyltransferase p300 (Homo sapiens, UniProt Q09472); assay: Displacement of [3H]-acetyl-CoA from P300 (unknown origin) using peptide as substrate after 60 mins
CREB-binding protein [2] = target: T2, CREB-binding protein (Homo sapiens, UniProt Q92793); assay: Inhibition of CBP BHC domain (unknown origin)
CREB-binding protein [3] = target: T2, CREB-binding protein; assay: Inhibition of recombinant CBP (unknown origin) at 500 uM using H3 peptide as substrate after 30 mins in presence of acetyl-CoA by fluorescence assay relative to control
Target sequence in this assay (Q92793 2-2442 limits assumed): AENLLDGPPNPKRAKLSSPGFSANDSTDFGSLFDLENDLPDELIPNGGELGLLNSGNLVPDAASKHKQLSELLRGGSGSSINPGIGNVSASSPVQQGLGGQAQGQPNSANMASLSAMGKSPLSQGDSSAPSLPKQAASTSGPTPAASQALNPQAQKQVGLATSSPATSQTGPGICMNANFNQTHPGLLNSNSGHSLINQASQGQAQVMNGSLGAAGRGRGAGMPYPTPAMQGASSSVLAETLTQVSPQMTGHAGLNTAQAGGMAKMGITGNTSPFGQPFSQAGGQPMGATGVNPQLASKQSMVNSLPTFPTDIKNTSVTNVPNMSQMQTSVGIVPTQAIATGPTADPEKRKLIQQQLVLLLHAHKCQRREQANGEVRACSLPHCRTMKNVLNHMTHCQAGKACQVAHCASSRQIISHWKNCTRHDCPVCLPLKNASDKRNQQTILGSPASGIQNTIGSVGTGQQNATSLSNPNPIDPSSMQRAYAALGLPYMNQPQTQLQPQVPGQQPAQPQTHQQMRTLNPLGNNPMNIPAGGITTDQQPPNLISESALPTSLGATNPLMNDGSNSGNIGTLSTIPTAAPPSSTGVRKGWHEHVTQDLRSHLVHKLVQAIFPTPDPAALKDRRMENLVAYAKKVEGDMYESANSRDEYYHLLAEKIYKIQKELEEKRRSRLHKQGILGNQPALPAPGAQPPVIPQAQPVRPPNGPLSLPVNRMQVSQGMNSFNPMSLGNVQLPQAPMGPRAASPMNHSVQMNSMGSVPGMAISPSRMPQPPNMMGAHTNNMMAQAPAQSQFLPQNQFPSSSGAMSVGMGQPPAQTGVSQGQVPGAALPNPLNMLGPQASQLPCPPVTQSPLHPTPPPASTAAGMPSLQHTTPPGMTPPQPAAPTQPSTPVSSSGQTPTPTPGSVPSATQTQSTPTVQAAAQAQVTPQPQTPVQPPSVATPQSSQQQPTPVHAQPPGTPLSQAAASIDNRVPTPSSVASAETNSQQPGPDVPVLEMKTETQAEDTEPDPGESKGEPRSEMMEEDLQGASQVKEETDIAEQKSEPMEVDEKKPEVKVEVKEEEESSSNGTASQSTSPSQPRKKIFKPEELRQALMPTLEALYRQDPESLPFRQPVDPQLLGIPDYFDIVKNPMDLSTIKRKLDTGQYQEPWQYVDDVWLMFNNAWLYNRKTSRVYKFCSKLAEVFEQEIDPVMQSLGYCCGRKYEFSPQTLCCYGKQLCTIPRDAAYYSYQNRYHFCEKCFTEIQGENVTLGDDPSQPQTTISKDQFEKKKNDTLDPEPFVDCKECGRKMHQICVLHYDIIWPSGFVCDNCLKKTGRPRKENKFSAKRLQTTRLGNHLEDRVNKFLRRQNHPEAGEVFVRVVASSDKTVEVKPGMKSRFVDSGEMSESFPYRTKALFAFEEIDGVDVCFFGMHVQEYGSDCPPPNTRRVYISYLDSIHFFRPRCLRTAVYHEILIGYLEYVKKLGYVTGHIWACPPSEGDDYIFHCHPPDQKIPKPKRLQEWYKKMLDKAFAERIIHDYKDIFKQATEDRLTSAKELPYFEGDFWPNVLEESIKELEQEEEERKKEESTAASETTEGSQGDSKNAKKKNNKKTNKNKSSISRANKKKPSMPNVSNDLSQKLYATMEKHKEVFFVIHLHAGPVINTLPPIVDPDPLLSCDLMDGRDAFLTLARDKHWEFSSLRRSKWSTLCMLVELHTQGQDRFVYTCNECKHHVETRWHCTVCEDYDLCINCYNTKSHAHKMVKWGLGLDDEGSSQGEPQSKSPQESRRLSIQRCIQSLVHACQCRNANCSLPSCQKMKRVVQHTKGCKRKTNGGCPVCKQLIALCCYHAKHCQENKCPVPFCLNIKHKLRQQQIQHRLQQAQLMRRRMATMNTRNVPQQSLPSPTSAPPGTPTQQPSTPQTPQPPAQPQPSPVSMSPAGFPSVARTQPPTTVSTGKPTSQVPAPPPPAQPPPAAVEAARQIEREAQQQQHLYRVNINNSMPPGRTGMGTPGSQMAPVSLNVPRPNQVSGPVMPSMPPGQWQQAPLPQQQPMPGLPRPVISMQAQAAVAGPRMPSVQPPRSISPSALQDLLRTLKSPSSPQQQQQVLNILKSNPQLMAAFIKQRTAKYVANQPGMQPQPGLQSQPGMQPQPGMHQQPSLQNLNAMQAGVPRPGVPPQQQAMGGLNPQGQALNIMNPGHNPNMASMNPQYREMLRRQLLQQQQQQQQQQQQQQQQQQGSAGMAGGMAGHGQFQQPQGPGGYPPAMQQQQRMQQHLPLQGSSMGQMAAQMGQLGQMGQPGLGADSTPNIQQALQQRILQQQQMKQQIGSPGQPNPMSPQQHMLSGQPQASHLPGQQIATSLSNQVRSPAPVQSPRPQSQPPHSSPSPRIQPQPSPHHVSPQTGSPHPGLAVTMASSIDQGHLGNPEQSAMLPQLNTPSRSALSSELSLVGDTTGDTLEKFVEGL

U-937 = assay: Induction of apoptosis in human U937 cells relative to control; assay type: functional
Homo sapiens = species on record: Homo sapiens; assay: Inhibition of HAT (unknown origin) relative to control; parameters: concentration or dose not given beside the values; conditions: concentration not given here
[4] = target: T1, Histone acetyltransferase p300; assay: Inhibition of P300 (unknown origin)
[5] = target: Histone deacetylase 1 (Homo sapiens) (UniProt Q13547); assay: Inhibition of HDAC1 (unknown origin) relative to control; conditions: concentration not given here
Chain of Histone deacetylase 1 (Homo sapiens) (Q13547 whole entry): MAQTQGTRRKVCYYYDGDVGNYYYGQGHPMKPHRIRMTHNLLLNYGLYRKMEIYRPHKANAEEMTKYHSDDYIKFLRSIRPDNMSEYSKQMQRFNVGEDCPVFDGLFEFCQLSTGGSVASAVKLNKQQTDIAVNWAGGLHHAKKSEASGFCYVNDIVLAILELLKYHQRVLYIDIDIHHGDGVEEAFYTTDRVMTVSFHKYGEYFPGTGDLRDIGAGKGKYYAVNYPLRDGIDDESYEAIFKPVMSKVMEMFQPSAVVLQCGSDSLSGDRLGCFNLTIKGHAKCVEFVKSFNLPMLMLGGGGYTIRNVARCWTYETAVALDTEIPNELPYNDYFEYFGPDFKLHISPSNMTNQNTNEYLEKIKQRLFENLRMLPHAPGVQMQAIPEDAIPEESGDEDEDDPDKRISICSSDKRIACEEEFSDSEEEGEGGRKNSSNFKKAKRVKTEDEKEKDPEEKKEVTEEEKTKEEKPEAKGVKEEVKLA

[6] = target: Histone acetyltransferase KAT2A (Homo sapiens) (UniProt Q92830); assay: Inhibition of GCN5 (unknown origin) relative to control; conditions: concentration not given here
[7] = target: T3, Histone acetyltransferase KAT2B (Homo sapiens, UniProt Q92831); assay: Inhibition of PCAF (unknown origin) relative to control; conditions: concentration not given here
T3 sequence (Q92831 whole entry, looked up): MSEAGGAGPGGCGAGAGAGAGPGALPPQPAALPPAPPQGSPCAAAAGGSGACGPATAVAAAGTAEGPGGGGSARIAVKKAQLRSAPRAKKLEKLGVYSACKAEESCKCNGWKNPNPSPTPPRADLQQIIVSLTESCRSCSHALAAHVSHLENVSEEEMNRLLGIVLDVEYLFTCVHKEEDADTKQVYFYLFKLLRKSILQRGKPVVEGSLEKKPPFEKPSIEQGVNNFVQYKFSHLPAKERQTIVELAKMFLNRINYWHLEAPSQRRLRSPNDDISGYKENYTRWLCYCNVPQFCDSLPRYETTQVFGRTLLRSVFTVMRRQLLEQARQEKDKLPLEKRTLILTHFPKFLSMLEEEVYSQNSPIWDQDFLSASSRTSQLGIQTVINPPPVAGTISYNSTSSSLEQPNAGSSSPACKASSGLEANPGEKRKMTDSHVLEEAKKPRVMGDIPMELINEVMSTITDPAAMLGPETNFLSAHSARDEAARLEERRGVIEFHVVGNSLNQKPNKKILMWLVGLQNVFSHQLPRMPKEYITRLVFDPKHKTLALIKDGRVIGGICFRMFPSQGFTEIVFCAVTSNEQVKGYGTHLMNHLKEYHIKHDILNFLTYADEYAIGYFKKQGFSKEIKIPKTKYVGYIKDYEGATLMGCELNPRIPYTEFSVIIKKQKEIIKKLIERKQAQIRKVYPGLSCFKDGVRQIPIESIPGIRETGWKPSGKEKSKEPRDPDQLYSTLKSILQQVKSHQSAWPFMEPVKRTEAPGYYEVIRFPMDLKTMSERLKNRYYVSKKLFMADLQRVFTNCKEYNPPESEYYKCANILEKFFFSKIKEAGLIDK

HeLa = assay: Cytotoxicity against human HeLa cells assessed as reduction in cell viability by SRB assay; assay type: functional, cell-based
HT-29 = assay: Cytotoxicity against human HT-29 cells assessed as reduction in cell viability by SRB assay; assay type: functional, cell-based
A549 [8] = assay: Cytotoxicity against human A549 cells assessed as reduction in cell viability by SRB assay; assay type: functional, cell-based
[9] = target: T3, Histone acetyltransferase KAT2B; assay: Inhibition of PCAF (unknown origin) at 100 uM by CPM dye-based fluorescence assay relative to control
Hep 3B2 = assay: Cytotoxicity against human Hep3B cells assessed as reduction in cell viability by SRB assay; assay type: functional, cell-based
MDA-MB-231 = assay: Cytotoxicity against human MDA-MB-231 cells assessed as reduction in cell viability by SRB assay; assay type: functional, cell-based
HCT cell line = assay: Cytotoxicity against human HCT cells assessed as reduction in cell viability by SRB assay; assay type: functional, cell-based
[10] = target: T3, Histone acetyltransferase KAT2B; assay: Inhibition of PCAF (unknown origin) at 100 uM relative to control
[11] = target: T1, Histone acetyltransferase p300; assay: Displacement of [3H]-acetyl-CoA from P300 in human HeLa cells using peptide as substrate after 3 hrs; assay type: cell-based
[12] = Inhibition of HAT (unknown origin); parameters: species or system Homo sapiens
[13] = target: CREB-binding protein/Histone acetyltransferase p300 (Homo sapiens, UniProt Q09472+Q92793); assay: Inhibition of p300 (unknown origin)/CBP (unknown origin); assay type: protein assay
[14] = target: T4, Histone acetyltransferase KAT7 (Homo sapiens, UniProt O95251); conditions: 10 uM
T4 sequence (O95251 whole entry): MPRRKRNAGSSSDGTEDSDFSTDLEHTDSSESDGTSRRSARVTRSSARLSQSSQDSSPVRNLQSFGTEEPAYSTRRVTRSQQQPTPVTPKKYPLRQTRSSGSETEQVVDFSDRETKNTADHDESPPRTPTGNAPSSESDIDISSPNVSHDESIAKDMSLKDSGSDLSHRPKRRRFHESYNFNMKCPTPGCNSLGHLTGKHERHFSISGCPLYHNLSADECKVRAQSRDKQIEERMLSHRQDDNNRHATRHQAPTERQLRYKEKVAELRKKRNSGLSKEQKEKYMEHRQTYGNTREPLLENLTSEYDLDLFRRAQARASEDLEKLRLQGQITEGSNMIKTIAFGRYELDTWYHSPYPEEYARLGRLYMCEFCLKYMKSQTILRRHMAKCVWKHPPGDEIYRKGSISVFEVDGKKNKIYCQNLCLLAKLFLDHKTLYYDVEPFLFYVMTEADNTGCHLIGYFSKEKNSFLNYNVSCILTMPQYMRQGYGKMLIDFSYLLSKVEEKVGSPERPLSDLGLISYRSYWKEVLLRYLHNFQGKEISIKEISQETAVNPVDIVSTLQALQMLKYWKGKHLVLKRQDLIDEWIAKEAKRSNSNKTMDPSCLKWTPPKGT

[15] = target: T4, Histone acetyltransferase KAT7; conditions: 10 uM; remark: listed apart in the source
[16] = target: T4, Histone acetyltransferase KAT7; assay: Inhibition of KAT7 (unknown origin)
[17] = target: Histone acetyltransferase KAT5 (Homo sapiens, UniProt Q92993); assay: Inhibition of KAT5 (unknown origin)
Chain of Histone acetyltransferase KAT5 (Q92993 whole entry): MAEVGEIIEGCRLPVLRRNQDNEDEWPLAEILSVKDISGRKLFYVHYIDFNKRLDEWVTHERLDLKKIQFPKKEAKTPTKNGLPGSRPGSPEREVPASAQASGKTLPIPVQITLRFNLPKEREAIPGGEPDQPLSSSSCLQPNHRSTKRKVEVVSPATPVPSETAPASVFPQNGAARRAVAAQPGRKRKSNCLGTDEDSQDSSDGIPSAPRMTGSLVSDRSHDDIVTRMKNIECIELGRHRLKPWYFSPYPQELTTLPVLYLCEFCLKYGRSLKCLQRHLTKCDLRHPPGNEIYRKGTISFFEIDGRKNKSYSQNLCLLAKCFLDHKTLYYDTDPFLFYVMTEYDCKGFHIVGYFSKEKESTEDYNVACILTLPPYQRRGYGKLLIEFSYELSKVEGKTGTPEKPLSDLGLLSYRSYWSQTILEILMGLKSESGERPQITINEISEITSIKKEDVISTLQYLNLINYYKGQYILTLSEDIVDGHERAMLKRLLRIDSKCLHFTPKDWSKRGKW

A549 [18] = assay: Cytotoxicity against human A549 cells after 48 hrs by MTT assay; assay type: functional, cell-based; conditions: A549, 48 h

## COc1cc2c(cc1OC)C[N+]1(Cc3ccccc3)CCCc3cc(OC)c(OC)cc3C1C2 (stereo unspecified)
[1]
  IC50: < 10 µM

## COc1ccc2cc3[n+](cc2c1OC)CCCc1cc2c(cc1-3)OCO2
[1]
  IC50: 1.8 to 44 µM

## CC1=NN(c2ccc(C(=O)O)cc2)C(=O)/C1=C/c1ccc(-c2cc(C)c(C)cc2[N+](=O)[O-])o1
CREB-binding protein [2]
  IC50: 0.0026 µM

## O=C1/C(=C/c2ccc(O)c(Br)c2)CNC/C1=C\c1ccc(O)c(Br)c1
CREB-binding protein [3]
  inhibition: 85%

## COc1ccc2c(c1OC)C[N+]1(Cc3ccccc3)CCCc3cc4c(cc3C1C2)OCO4 (stereo unspecified)
[1]
  IC50: 1.8 to 44 µM

## CCOC(=O)c1c(C)nc2ccccc2c1O
U-937
  Activity: 27%

## Oc1cc(O)c2c(c1)O[C@H](c1ccc(O)c(O)c1)[C@H](O)[C@H]2c1c(O)cc(O)c2c1O[C@H](c1ccc(O)c(O)c1)[C@@H](O)C2
Homo sapiens
  inhibition: 50%

## CC(=O)N1CC(C)Sc2cc(S(=O)(=O)NCc3ccccc3)ccc21 (stereo unspecified)
[4]
  IC50: 3.4 µM

## O=C1/C(=C/c2ccc(O)cc2)CCC/C1=C\c1ccc(O)cc1
CREB-binding protein [3]
  inhibition: 40%

## CC(C)=CC[C@H]1C[C@@]23C[C@@H](CC=C(C)C)C(C)(C)[C@@](CC=C(C)C)(C(=O)C(C(=O)c4ccc(C(C)C)c(O)c4)=C2OC1(C)C)C3=O
[4]
  IC50: 5 to 7 µM

## CC(C)=CC[C@H]1C[C@@]23C[C@@H](CC=C(C)C)C(C)(C)[C@@](CC=C(C)C)(C(=O)C(C(=O)c4ccc(OS(C)(=O)=O)c(OS(C)(=O)=O)c4)=C2OC1(C)C)C3=O
[5]
  inhibition: < 10%
[6]
  inhibition: < 10%
[7]
  inhibition: < 10%
[4]
  IC50: 5 to 7 µM

## C#CCNCCCCCOc1ccc2nc(C)c(C(=O)OCC)cc2c1
[4]
  IC50: 57.5 µM

## CCCCCCCCCCCCCC(=O)Nc1ccccc1C(=O)Nc1cccc(C(=O)O)c1
HeLa
  IC50: 25 to 50 µM
HT-29
  IC50: 25 to 50 µM
A549 [8]
  IC50: 25 to 50 µM
[9]
  inhibition: 79%
Hep 3B2
  IC50: 25 to 50 µM
MDA-MB-231
  IC50: 25 to 50 µM
HCT cell line
  IC50: 25 to 50 µM
[10]
  inhibition: 79%

## CCCCCCCCCCCCCCCC(=O)Nc1ccccc1C(=O)Nc1ccc(C(=O)O)cc1
HeLa
  IC50: 25 to 50 µM
HT-29
  IC50: 25 to 50 µM
A549 [8]
  IC50: 25 to 50 µM
Hep 3B2
  IC50: 25 to 50 µM
MDA-MB-231
  IC50: 25 to 50 µM
HCT cell line
  IC50: 25 to 50 µM

## CCCCC[C@H](O)C/C=C1/C(=O)C=C[C@@H]1C/C=C/CCCC(=O)O
[11]
  IC50: 0.75 µM
[4]
  IC50: 0.75 µM

## C#CCN(Cc1ccc2[nH]c(N)nc(=O)c2c1)c1ccc(C(=O)N[C@@H](CCC(=O)O)C(=O)O)cc1
[12]
  IC50: 0.225 µM

## Oc1cc(O)c2cc(O)c(-c3cc(O)c(O)c(O)c3)[o+]c2c1.[Cl-] [DELPHINIDIN CHLORIDE]
[13]
  IC50: 30 µM

## CCOC(=O)C1C/C(=C\c2ccc(O)c(Br)c2)C(=O)/C(=C/c2ccc(O)c(Br)c2)C1 (stereo unspecified)
CREB-binding protein [3]
  inhibition: 85%

## O=C(NNS(=O)(=O)c1ccc2ccccc2c1)c1ccccc1F
[14]
  inhibition: 49%
[15]
  inhibition: 49%
[16]
  IC50: > 200 µM
[17]
  IC50: > 200 µM

## COc1cc2c(cc1OC)-c1cc3ccc(OC)c(OC)c3c[n+]1CCC2
[1]
  IC50: 0.42 µM

## CCCCC[C@H](O)CC[C@H]1C(=O)C=C[C@@H]1C/C=C/CCCC(=O)O
[4]
  IC50: > 2 µM

## COc1cc(OC)cc(C(=O)Nc2ccc3c(C)c(C(=O)c4cc(OC)ccc4OC)oc3c2)c1
A549 [18]
  IC50: 58.3 µg/mL (≈ 123 µM)
